Experimental data from ChEMBL document CHEMBL1287720, “Inhibition of human neuraminidase 3 (NEU3) by C9-triazole derivatives of 2,3-didehydro-N-acetyl-neuraminic acid” (Bioorg Med Chem Lett, 2010).

These molecules were tested against T1, Sialidase-3 (Homo sapiens, UniProt Q9UQ49) (assay: Inhibition of human neuraminidase 3 assessed as inhibition of GM3 hydrolysis).
T1 sequence (Q9UQ49 whole entry): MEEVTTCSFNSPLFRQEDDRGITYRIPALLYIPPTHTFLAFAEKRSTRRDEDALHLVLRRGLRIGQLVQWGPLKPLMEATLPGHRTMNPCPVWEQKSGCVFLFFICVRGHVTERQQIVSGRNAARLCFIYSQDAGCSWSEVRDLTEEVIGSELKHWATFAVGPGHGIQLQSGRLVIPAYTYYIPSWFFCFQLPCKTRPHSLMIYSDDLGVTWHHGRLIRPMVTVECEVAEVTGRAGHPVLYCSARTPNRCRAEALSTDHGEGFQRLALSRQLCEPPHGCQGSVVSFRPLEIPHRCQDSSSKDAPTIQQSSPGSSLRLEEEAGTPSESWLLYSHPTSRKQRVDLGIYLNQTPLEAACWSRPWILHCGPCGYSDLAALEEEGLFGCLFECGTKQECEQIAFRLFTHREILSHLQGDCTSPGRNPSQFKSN

SMILES	IC50 [µM]
CCOC(=O)C1=C[C@@H](OC(CC)CC)[C@H](NC(C)=O)[C@@H](N)C1 [OSELTAMIVIR]	> 10000

The molecules below were run against T1, Sialidase-3 (assay: not given).

SMILES	IC50 [µM]
CC(=O)N[C@H]1[C@H]([C@H](O)[C@H](O)CN=[N+]=[N-])OC(C(=O)O)=C[C@@H]1O	70
CC(=O)N[C@H]1[C@H]([C@H](O)[C@H](O)Cn2cc(-c3ccccc3)nn2)OC(C(=O)O)=C[C@@H]1O	20
CCCCCCc1cn(C[C@@H](O)[C@@H](O)[C@@H]2OC(C(=O)O)=C[C@H](O)[C@H]2NC(C)=O)nn1	23
CCOc1cn(C[C@@H](O)[C@@H](O)[C@@H]2OC(C(=O)O)=C[C@H](O)[C@H]2NC(C)=O)nn1	300
CCOC(OCC)c1cn(C[C@@H](O)[C@@H](O)[C@@H]2OC(C(=O)O)=C[C@H](O)[C@H]2NC(C)=O)nn1	130
CC(=O)N[C@H]1[C@H]([C@H](O)[C@H](O)Cn2cc(COc3ccccc3)nn2)OC(C(=O)O)=C[C@@H]1O	45
CC(=O)N[C@H]1[C@H]([C@H](O)[C@H](O)Cn2cc(CO)nn2)OC(C(=O)O)=C[C@@H]1O	300
CC(=O)N[C@H]1[C@H]([C@H](O)[C@H](O)Cn2cc(CCO)nn2)OC(C(=O)O)=C[C@@H]1O	400
CC(=O)N[C@H]1[C@H]([C@H](O)[C@H](O)Cn2cc(CCCO)nn2)OC(C(=O)O)=C[C@@H]1O	500
CC(=O)N[C@H]1[C@H]([C@H](O)[C@H](O)Cn2cc(C(C)(C)O)nn2)OC(C(=O)O)=C[C@@H]1O	300
[N-]=[N+]=NCC(=O)N[C@H]1[C@H]([C@H](O)[C@H](O)CO)OC(C(=O)O)=C[C@@H]1O	21
O=C(Cn1cc(-c2ccccc2)nn1)N[C@H]1[C@H]([C@H](O)[C@H](O)CO)OC(C(=O)O)=C[C@@H]1O	> 500
CCCCCCc1cn(CC(=O)N[C@H]2[C@H]([C@H](O)[C@H](O)CO)OC(C(=O)O)=C[C@@H]2O)nn1	> 500
CCOc1cn(CC(=O)N[C@H]2[C@H]([C@H](O)[C@H](O)CO)OC(C(=O)O)=C[C@@H]2O)nn1	> 500
CCOC(OCC)c1cn(CC(=O)N[C@H]2[C@H]([C@H](O)[C@H](O)CO)OC(C(=O)O)=C[C@@H]2O)nn1	> 500
O=C(Cn1cc(COc2ccccc2)nn1)N[C@H]1[C@H]([C@H](O)[C@H](O)CO)OC(C(=O)O)=C[C@@H]1O	> 500
O=C(Cn1cc(CO)nn1)N[C@H]1[C@H]([C@H](O)[C@H](O)CO)OC(C(=O)O)=C[C@@H]1O	> 500
O=C(Cn1cc(CCO)nn1)N[C@H]1[C@H]([C@H](O)[C@H](O)CO)OC(C(=O)O)=C[C@@H]1O	> 500
O=C(Cn1cc(CCCO)nn1)N[C@H]1[C@H]([C@H](O)[C@H](O)CO)OC(C(=O)O)=C[C@@H]1O	> 500
CC(C)(O)c1cn(CC(=O)N[C@H]2[C@H]([C@H](O)[C@H](O)CO)OC(C(=O)O)=C[C@@H]2O)nn1	> 500
CC(=O)N[C@H]1[C@H]([C@H](O)[C@H](O)CO)OC(C(=O)O)=C[C@@H]1O [NEU5AC2EN]	48

Each molecule was assayed against T1, Sialidase-3 (assay: Inhibition of human neuraminidase 3).

SMILES	IC50
CC(=O)N[C@H]1[C@H]([C@H](O)[C@H](O)CO)O[C@@](O)(C(=O)O)C[C@@H]1O	Not Active

Each molecule was assayed against T1, Sialidase-3 (assay: Inhibition of human neuraminidase 3 assessed as inhibition of 4-methylumbelliferyl-alpha-D-N-acetylneuraminic acid hydrolysis).

SMILES	IC50 [µM]
CC(=O)N[C@H]1[C@H]([C@H](O)[C@H](O)CNC(=O)c2ccccc2)OC(C(=O)O)=C[C@@H]1O	320
CC(=O)NC[C@@H](O)[C@@H](O)[C@@H]1OC(C(=O)O)=C[C@H](O)[C@H]1NC(C)=O	> 1000
CC(=O)N[C@H]1[C@H]([C@H](O)[C@H](O)CO)OC(C(=O)O)=C[C@@H]1O [NEU5AC2EN]	43
